The NIST ThermoML archive (doi:10.1021/acs.jced.5b00197)
Numbers after ± are expanded uncertainties.

Assay: refractive index (other wavelength) (dimensionless); xn = mol fraction of the nth substance listed
Conditions: 303.15 K, 94.64 kPa, Liquid, Standard Abbe refractometry

CC(=O)O [acetic acid] + Cc1ccccc1
refractive index
Conditions	Wavelength=486.1 nm	Wavelength=546.1 nm	Wavelength=587.6 nm	Wavelength=632.8 nm	Wavelength=644 nm	Wavelength=706.5 nm
x1 = 0.146	1.48963 ± 0.00042	1.48261 ± 0.00041	1.47918 ± 0.0004	1.47618 ± 0.0004	1.47549 ± 0.00042	1.47237 ± 0.0004
x1 = 0.277	1.47522 ± 0.00041	1.46865 ± 0.0004	1.46547 ± 0.0004	1.46268 ± 0.0004	1.46203 ± 0.00039	1.45908 ± 0.00039
x1 = 0.397	1.46273 ± 0.0004	1.45661 ± 0.0004	1.45363 ± 0.00039	1.451 ± 0.00038	1.45039 ± 0.0004	1.44761 ± 0.00039
x1 = 0.506	1.44918 ± 0.0004	1.44352 ± 0.00039	1.44075 ± 0.00039	1.4383 ± 0.00038	1.43773 ± 0.00039	1.43513 ± 0.00038
x1 = 0.605	1.43626 ± 0.00039	1.43107 ± 0.00039	1.42851 ± 0.00038	1.42623 ± 0.00038	1.42569 ± 0.00038	1.42326 ± 0.00038
x1 = 0.697	1.42331 ± 0.00039	1.41861 ± 0.00038	1.41625 ± 0.00038	1.41415 ± 0.00038	1.41365 ± 0.00038	1.41136 ± 0.00038
x1 = 0.782	1.41106 ± 0.00038	1.40674 ± 0.00038	1.4046 ± 0.00037	1.40267 ± 0.00037	1.40221 ± 0.00038	1.4001 ± 0.00037
x1 = 0.859	1.39813 ± 0.00038	1.3943 ± 0.00038	1.39235 ± 0.00037	1.39059 ± 0.00038	1.39018 ± 0.0004	1.38824 ± 0.00038
x1 = 0.897	1.38838 ± 0.00038	1.3849 ± 0.00038	1.38309 ± 0.00037	1.38146 ± 0.0004	1.38109 ± 0.00038	1.37929 ± 0.00037
x1 = 0.932	1.38329 ± 0.00039	1.37997 ± 0.00038	1.37826 ± 0.00038	1.37671 ± 0.00037	1.37634 ± 0.00037	1.37461 ± 0.00037
x1 = 0.967	1.37795 ± 0.00037	1.37485 ± 0.00037	1.37321 ± 0.00037	1.37172 ± 0.00037	1.37138 ± 0.00037	1.36976 ± 0.00037
x1 = 1	1.37261 ± 0.00037	1.36968 ± 0.00036	1.36815 ± 0.00036	1.36675 ± 0.00036	1.36643 ± 0.00036	1.36485 ± 0.00036
